Test results as given in the NIST ThermoML archive (doi:10.1016/j.jct.2017.08.004).

Assay: molar heat capacity at constant pressure
Settings: 101.33 kPa

OC[C@@H](O)[C@@H](O)CO [meso-1,2,3,4-butanetetrol]
molar heat capacity at constant pressure [J/K/mol]
Settings	Small sample (50 mg) DSC	relaxation calorimetry
264.15 K, Crystal	146.16	–
265.15 K, Crystal	146.7	–
266.15 K, Crystal	147.21	–
267.15 K, Crystal	147.61	–
268.15 K, Crystal	148.1	–
269.15 K, Crystal	148.57	–
270 K, Crystal	–	150.4
270.15 K, Crystal	149.15	–
271.15 K, Crystal	149.59	–
272.15 K, Crystal	150.19	–
272.18 K, Crystal	–	151.4
273.15 K, Crystal	150.91	152
274.15 K, Crystal	151.33	–
275.15 K, Crystal	151.84	–
276.15 K, Crystal	152.44	–
277.15 K, Crystal	152.94	–
278.15 K, Crystal	153.58	–
279.15 K, Crystal	154.21	–
280 K, Crystal	–	155.49
280.15 K, Crystal	154.62	–
281.15 K, Crystal	155.17	–
282.15 K, Crystal	155.77	–
282.18 K, Crystal	–	157.05
283.15 K, Crystal	156.24	–
284.15 K, Crystal	156.55	–
285.15 K, Crystal	157.21	–
286.15 K, Crystal	157.62	–
287.15 K, Crystal	158.1	–
288.15 K, Crystal	158.65	–
289.15 K, Crystal	159.25	–
290 K, Crystal	–	160.61
290.15 K, Crystal	159.93	–
291.15 K, Crystal	160.48	–
292.15 K, Crystal	161.05	–
292.3 K, Crystal	–	161.64
293.15 K, Crystal	161.72	–
294.15 K, Crystal	162.21	–
295.15 K, Crystal	162.81	–
296.15 K, Crystal	163.64	–
297.15 K, Crystal	164.09	–
298.15 K, Crystal	164.59	164.8
299.15 K, Crystal	165.2	–
300 K, Crystal	–	165.76
300.15 K, Crystal	165.82	–
301.15 K, Crystal	166.37	–
302.15 K, Crystal	166.97	–
302.36 K, Crystal	–	167.01
303.15 K, Crystal	167.71	–
304.15 K, Crystal	168.28	–
305 K, Crystal	169.01	–
305.15 K, Crystal	169.01	–
306.15 K, Crystal	169.71	–
307.15 K, Crystal	170.39	–
308.15 K, Crystal	171.17	–
309.15 K, Crystal	171.87	–
310 K, Crystal	172.33	–
310.15 K, Crystal	172.47	–
311.15 K, Crystal	173.14	–
312.15 K, Crystal	173.77	–
313.15 K, Crystal	174.6	–
314.15 K, Crystal	175.09	–
315 K, Crystal	175.5	–
315.15 K, Crystal	175.58	–
316.15 K, Crystal	176.2	–
317.15 K, Crystal	176.88	–
318.15 K, Crystal	177.32	–
319.15 K, Crystal	177.89	–
320 K, Crystal	178.54	–
320.15 K, Crystal	178.54	–
321.15 K, Crystal	179.14	–
322.15 K, Crystal	179.7	–
323.15 K, Crystal	180.24	–
324.15 K, Crystal	180.85	–
325 K, Crystal	181.48	–
325.15 K, Crystal	181.48	–
326.15 K, Crystal	181.97	–
327.15 K, Crystal	182.72	–
328.15 K, Crystal	183.34	–
329.15 K, Crystal	183.85	–
330 K, Crystal	184.34	–
330.15 K, Crystal	184.59	–
331.15 K, Crystal	185.18	–
332.15 K, Crystal	185.74	–
333.15 K, Crystal	186.31	–
334.15 K, Crystal	186.85	–
335 K, Crystal	187.15	–
335.15 K, Crystal	187.33	–
336.15 K, Crystal	187.85	–
337.15 K, Crystal	188.31	–
338.15 K, Crystal	188.9	–
339.15 K, Crystal	189.49	–
340 K, Crystal	189.91	–
340.15 K, Crystal	189.94	–
341.15 K, Crystal	190.43	–
342.15 K, Crystal	191.01	–
343.15 K, Crystal	191.56	–
344.15 K, Crystal	192.16	–
345 K, Crystal	192.66	–
345.15 K, Crystal	192.67	–
346.15 K, Crystal	193.32	–
347.15 K, Crystal	193.86	–
348.15 K, Crystal	194.17	–
349.15 K, Crystal	194.83	–
350 K, Crystal	195.43	–
350.15 K, Crystal	195.3	–
351.15 K, Crystal	195.72	–
352.15 K, Crystal	196.34	–
353.15 K, Crystal	197.73	–
354.15 K, Crystal	198.08	–
355 K, Crystal	198.22	–
355.15 K, Crystal	198.55	–
356.15 K, Crystal	199.02	–
357.15 K, Crystal	199.53	–
358.15 K, Crystal	200.16	–
359.15 K, Crystal	200.7	–
360 K, Crystal	201.07	–
360.15 K, Crystal	201.23	–
361.15 K, Crystal	201.82	–
362.15 K, Crystal	202.33	–
363.15 K, Crystal	202.72	–
364.15 K, Crystal	203.4	–
365 K, Crystal	203.99	–
365.15 K, Crystal	203.96	–
366.15 K, Crystal	204.56	–
367.15 K, Crystal	205.27	–
368.15 K, Crystal	205.84	–
369.15 K, Crystal	206.45	–
370 K, Crystal	207.02	–
370.15 K, Crystal	207.1	–
371.15 K, Crystal	207.59	–
372.15 K, Crystal	208.24	–
373.15 K, Crystal	208.9	–
374.15 K, Crystal	209.47	–
375 K, Crystal	210.16	–
375.15 K, Crystal	210.03	–
412.05 K, Liquid	355.49	–
412.15 K, Liquid	355.53	–
412.25 K, Liquid	355.65	–
412.35 K, Liquid	355.53	–
412.45 K, Liquid	355.34	–
412.55 K, Liquid	355.36	–
412.65 K, Liquid	355.43	–
412.75 K, Liquid	355.39	–
412.85 K, Liquid	355.48	–
412.95 K, Liquid	355.36	–
413.05 K, Liquid	355.34	–
413.15 K, Liquid	355.22	–
414.15 K, Liquid	354.92	–
415 K, Liquid	354.91	–
415.15 K, Liquid	354.76	–
416.15 K, Liquid	354.79	–
417.15 K, Liquid	354.7	–
418.15 K, Liquid	354.67	–
419.15 K, Liquid	354.7	–
420 K, Liquid	354.96	–
420.15 K, Liquid	354.81	–
421.15 K, Liquid	354.98	–
422.15 K, Liquid	354.99	–
423.15 K, Liquid	354.99	–
424.15 K, Liquid	354.94	–
425 K, Liquid	355.01	–
425.15 K, Liquid	354.94	–
426.15 K, Liquid	354.95	–
427.15 K, Liquid	355.23	–
428.15 K, Liquid	355.21	–
429.15 K, Liquid	355.15	–
430 K, Liquid	355.06	–
430.15 K, Liquid	355.18	–
431.15 K, Liquid	355.17	–
432.15 K, Liquid	355.17	–
433.15 K, Liquid	355	–
434.15 K, Liquid	354.85	–
435 K, Liquid	355.11	–
435.15 K, Liquid	355.19	–
